Measured values as given in PMC5499624 (Biomolecules & Therapeutics, 2017).
Counter-ions that a name gives are not always drawn. Like-named read-outs stand apart in the source and are kept apart here.

Columns and labels:
TR-BBB cells [1] = assay: Uptake of radiolabelled substrates in siRNA-transfected TR-BBB cells; assay type: in vitro ADME, rat; details: 37°C, 5 min
[2] = tested on: [^3H]imperatorin brain uptake; assay: Brain uptake index; assay type: in vivo, rat; details: 15 s after injection
[3] = tested on: proton coupled antiporter; details: read-out: in vivo Km; mouse, in situ brain perfusion; ref André et al., 2009; cited from earlier work
hCMEC/D3 cells = details: ref Kitamura et al., 2014, Sadiq et al., 2011; cited from earlier work
[4] = assay type: in vivo, SD rats; details: for AUC: 60 min; for Uptake: 60 min after IV
rat brain = assay: [^3H]imperatorin brain uptake by internal carotid artery perfusion; assay type: in vivo, SD rats; details: ICAP
[5] = [^3H]imperatorin uptake by TR-BBB cells; assay type: in vitro ADME, rat; details: rat, pH 7.4
TR-BBB cells [6] = assay: [^3H]imperatorin uptake by TR-BBB cells; assay type: in vitro ADME, rat
P-glycoprotein (P-gp) = details: ref Lili et al. (2013), cited from earlier work
[7] = tested on: [^3H]imperatorin brain uptake; assay type: in vivo, SD rats; details: compound 1 mM, ICAP 4 ml/min for 15 sec, pH 7.4
[8] = tested on: [^3H]imperatorin uptake by TR-BBB cells; assay: Inhibition of [^3H]imperatorin uptake by TR-BBB cells by selected compounds; assay type: in vitro ADME, rat; details: compound 1 mM (L-Carnitine: concentration cell empty), 37°C, 5 min
[9] = tested on: [^3H]imperatorin uptake by TR-BBB cells; assay type: in vitro ADME, rat; details: 37°C, 5 min
[10] = sucrose; ref Lee and Kang, 2016; cited from earlier work

Molecule: CC(=O)O[C@H](CC(=O)[O-])C[N+](C)(C)C [ALC, acetyl-L-carnitine]
- uptake after siRNA transfection (TR-BBB cells [1]; Octn2 siRNA): significantly inhibited

Molecule: Clc1cccc(Cl)c1N=C1NCCN1 [Clonidine, clonidine hydrochloride]
- BUI of [^3H]imperatorin in presence of inhibitor ([2]; inhibitor 10 mM): 33.9 ± 5.5 %
- Km [3]: 600 µM

Molecule: CN(C)CCOC(c1ccccc1)c1ccccc1 [Diphenhydramine, diphenhydramine]
- Km (hCMEC/D3 cells): 59 µM

Molecule: CC(C)=CCOc1c2occc2cc2ccc(=O)oc12 [Imperatorin]
- Brain VD relative to [^14C]sucrose ([4]; IV injection, rat brain): about 6 fold
- BBB PS product relative to sucrose ([4]; IV injection, sucrose value from Lee and Kang, 2016): 12 fold
- BBB PS product relative to sucrose ([4]; IV injection, sucrose value from Wu and Pardridge, 1999): 20 fold
- AUCss ([4]; SD rats, single IV, plasma): 38.2 ± 1.5 % ID min/mL
- AUC ([4]; SD rats, single IV, plasma): 22.1 ± 0.8 % ID min/mL
- AUC ([4]; SD rats, single IV, plasma, listed as [^3H]imperatorin): 22 ± 1 % ID min/mL
- Uptake ([4]; brain, SD rats): 0.086 ± 0.008 %ID/g
- Uptake ([4]; heart, SD rats): 1.62 ± 0.10 %ID/g
- Uptake ([4]; kidney, SD rats): 3.70 ± 0.33 %ID/g
- Uptake ([4]; liver, SD rats): 1.21 ± 0.08 %ID/g
- Uptake ([4]; lung, SD rats): 1.68 ± 0.03 %ID/g
- Brain transport compared with control (rat brain; carbonate-free HEPES): markedly decreased
- Vmax of brain influx (rat brain; imperatorin 0–1 mM, pH 7.4): 0.50 µmol/min/g
- Brain transport compared with control (rat brain; mannitol Na+-free buffer): significantly increased
- Kd (unsaturated component, passive diffusion) (rat brain; nonlinear regression): 3.1e-17 µL/min/g
- Km (rat brain; read-out: apparent Km of brain influx, imperatorin 0–1 mM, pH 7.4): 180 µM
- BUI of [^3H]imperatorin in presence of inhibitor ([2]; inhibitor 1 mM): 24.9 ± 3.4 %
- microsomal CLint at 5 min [5]: 17 µL/min/mg
- maximum rate of uptake velocity (Vmax) (TR-BBB cells [6]; 5 min, pH 7.4): 2.22 nmol/mg protein/min
- y-intersection of time course uptake (cell-to-medium ratio) (TR-BBB cells [6]; at 30 sec, Fig. 4): approximately 140 ul/mg protein
- [^3H]Imperatorin uptake compared to control (TR-BBB cells [6]; extracellular pH 6.4): significantly reduced
- [^3H]Imperatorin uptake compared to control (TR-BBB cells [6]; extracellular pH 8.4): markedly increased
- [^3H]Imperatorin uptake compared to control (TR-BBB cells [6]; intracellular acidification by pretreatment with NH4Cl): increased
- [^3H]Imperatorin uptake compared to control (TR-BBB cells [6]; pHi alkalized by 30 mM NH4Cl): reduced
- Km (TR-BBB cells [6]; read-out: Michaelis-Menten constant (Km) of uptake, 5 min, unlabeled imperatorin 0.01∼1 mM, pH 7.4): 59 µM
- uptake after siRNA transfection (TR-BBB cells [1]; rPmat, rOct 2, rOctn2 or rOctn1 siRNA): not significantly affected
- IC50 (P-glycoprotein (P-gp); P-gp inhibition): > 90 µM
- efflux ratio (P-glycoprotein (P-gp); larger than 3.0 = substrate of P-gp): 0.5

Molecule: C[N+](C)(C)C[C@H](O)CC(=O)[O-] [L-Carnitine, L-carnitine]
- Brain volume of distribution (VD, % of Control) of [^3H]imperatorin [7]: 79.2 ± 5.3 % of Control
- Relative Uptake (% of Control) of [^3H]imperatorin [8]: 86.4 ± 5.6 % of Control

Molecule: C[n+]1ccc(-c2ccccc2)cc1 [MPP+, 1-Methyl-4-phenylpyridinium ion]
- Brain volume of distribution (VD, % of Control) of [^3H]imperatorin [7]: 56.3 ± 5.8 % of Control
- Relative Uptake (% of Control) of [^3H]imperatorin [8]: 81.3 ± 3.9 % of Control
- uptake after siRNA transfection (TR-BBB cells [1]; rPmat siRNA): significantly inhibited

Molecule: CNC[C@H](O)[C@@H](O)[C@H](O)[C@H](O)CO [N-Methylglucamine (NMG), N-Methylglucamine]
- Relative Uptake (% of Control) of [^3H]imperatorin ([9]; Na+ replacement by N-methylglucamine): 97.4 ± 6.6 % of Control

Molecule: CN1CCC[C@H]1c1cccnc1 [Nicotine, nicotine]
- BUI of [^3H]imperatorin in presence of inhibitor ([2]; inhibitor 10 mM): 27.6 ± 0.0 %

Molecule: Nc1ccc(C(=O)NCC(=O)O)cc1 [PAH]
- Brain volume of distribution (VD, % of Control) of [^3H]imperatorin [7]: 94.4 ± 7.1 % of Control
- BUI of [^3H]imperatorin in presence of inhibitor ([2]; inhibitor 10 mM): 58.5 ± 6.3%

Molecule: [Cl-].[K+] [Potassium ion (KCl)]
- Relative Uptake (% of Control) of [^3H]imperatorin ([9]; sodium replaced by potassium ion (KCl)): 97.3 ± 2.3 % of Control

Molecule: [N-]=[N+]=[N-].[Na+] [Sodium azide, sodium azide]
- Relative Uptake (% of Control) of [^3H]imperatorin ([9]; sodium azide 0.1%, pretreatment, pH 7.4): 63.8 ± 2.7 % of Control

Molecule: CC[N+](CC)(CC)CC [TEA]
- Brain volume of distribution (VD, % of Control) of [^3H]imperatorin [7]: 103 ± 5 % of Control
- BUI of [^3H]imperatorin in presence of inhibitor ([2]; inhibitor 10 mM): 48.6 ± 4.5%
- Relative Uptake (% of Control) of [^3H]imperatorin [8]: 107 ± 10 % of Control

Molecule: COc1cccc(C2(O)CCCCC2CN(C)C)c1 (stereo not shown) [Tramadol, tramadol hydrochloride]
- Km (hCMEC/D3 cells): 49 µM

Molecule: OC[C@H]1O[C@@](CO)(O[C@H]2O[C@H](CO)[C@@H](O)[C@H](O)[C@H]2O)[C@@H](O)[C@@H]1O [sucrose]
- BBB PS product [10]: 0.32 ± 0.52 µL/min/g

Molecule: carbonyl cyanide-p-trifluorome-thoxyphenylhydrazone [FCCP]
- Relative Uptake (% of Control) of [^3H]imperatorin ([9]; 10 μM FCCP, pre-incubated 10 min, pH 7.4): 56.2 ± 6.3 % of Control
